Laboratory results: the OligoGym collection
HELM strings list units from the 5' end as sugar, base in round brackets, then linkage (d deoxyribose, r ribose, m 2'-O-methyl, p phosphodiester). Strings are as the collection lists them, not checked against the first reports. ss, as = sense and antisense strand; [hna] = hexitol nucleic acid; [s4r] = 4'-thioribose; [fl2r] = 2'-fluoro

Conditions: siRNA
Also: test system not given here.

Substance	target mRNA knockdown [%]
RNA1{[s4r](C)p.r(G)p.r(U)p.r(A)p.[s4r](C)p.r(G)p.[s4r](C)p.r(G)p.r(G)p.r(A)p.r(A)p.r(U)p.r(A)p.[s4r](C)p.r(U)p.r(U)p.[s4r](C)p.r(G)p.r(A)p.r(T)p.r(T)}|RNA2{r(U)p.r(C)p.r(G)p.r(A)p.r(A)p.r(G)p.r(U)p.r(A)p.r(U)p.r(U)p.r(C)p.r(C)p.r(G)p.r(C)p.r(G)p.r(U)p.r(A)p.r(C)p.r(G)p.r(T)p.r(T)}$$$RNA1{StrandType:ss}|RNA2{StrandType:as}$	93.6
RNA1{r(A)p.r(A)p.r(C)p.r(A)p.r(G)p.r(C)p.r(C)p.r(U)p.r(U)p.r(A)p.r(C)p.r(C)p.r(C)p.r(C)p.r(G)p.r(A)p.r(U)p.r(U)p.r(C)p.r(T)p.r(T)}|RNA2{r(G)p.r(A)p.r(A)p.r(U)p.r(C)p.r(G)p.r(G)p.r(G)p.r(G)p.m(U)p.r(A)p.r(A)p.r(G)p.r(G)p.r(C)p.r(U)p.r(G)p.r(U)p.r(U)p.r(T)p.r(T)}$$$RNA1{StrandType:ss}|RNA2{StrandType:as}$	69
RNA1{[fl2r](A)p.r(G)p.[fl2r](A)p.r(G)p.[fl2r](A)p.r(G)p.[fl2r](G)p.r(U)p.[fl2r](G)p.r(G)p.[fl2r](A)p.r(G)p.[fl2r](G)p.r(U)p.[fl2r](A)p.r(U)p.[fl2r](C)p.r(U)p.[fl2r](C)p.r(T)p.r(T)}|RNA2{r(G)p.[fl2r](A)p.r(G)p.[fl2r](A)p.r(U)p.[fl2r](A)p.r(C)p.r(C)p.r(U)p.r(C)p.r(C)p.[fl2r](A)p.r(C)p.r(C)p.r(U)p.r(C)p.r(U)p.r(C)p.r(U)p.r(T)p.r(T)}$$$RNA1{StrandType:ss}|RNA2{StrandType:as}$	68
RNA1{r(G)p.r(A)p.r(G)p.r(A)p.r(G)p.r(A)p.r(G)p.r(A)p.r(C)p.r(G)p.r(G)p.m(U)p.m(G)p.r(G)p.r(A)p.r(A)p.r(G)p.r(A)p.r(A)p.r(T)p.r(T)}|RNA2{r(U)p.r(U)p.r(C)p.r(U)p.r(U)p.r(C)p.m(C)p.r(A)p.r(C)p.r(C)p.r(G)p.r(U)p.r(C)p.r(U)p.r(C)p.r(U)p.r(C)p.r(U)p.r(C)p.r(T)p.r(T)}$$$RNA1{StrandType:ss}|RNA2{StrandType:as}$	72
RNA1{r(C)p.r(U)p.[fl2r](A)p.r(G)p.r(A)p.r(G)p.r(G)p.r(A)p.r(U)p.r(C)p.r(U)p.r(U)p.r(G)p.r(A)p.r(A)p.r(G)p.r(A)p.r(C)p.r(C)p.r(T)p.r(T)}|RNA2{r(G)p.r(G)p.r(U)p.r(C)p.r(U)p.r(U)p.r(C)p.r(A)p.r(A)p.r(G)p.r(A)p.r(U)p.r(C)p.r(C)p.r(U)p.r(C)p.[fl2r](U)p.r(A)p.r(G)p.r(T)p.r(T)}$$$RNA1{StrandType:ss}|RNA2{StrandType:as}$	82
RNA1{r(G)p.r(G)p.r(C)p.r(C)p.r(U)p.r(U)p.r(U)p.r(C)p.r(U)p.r(C)p.r(U)p.r(C)p.m(U)p.r(A)p.r(G)p.r(A)p.m(U)p.r(A)p.r(U)p.r(T)p.r(T)}|RNA2{r(A)p.m(U)p.r(A)p.r(U)p.r(C)p.m(U)p.r(A)p.r(G)p.r(A)p.r(G)p.r(A)p.r(G)p.r(A)p.r(A)p.r(A)p.r(G)p.r(G)p.r(C)p.r(C)p.r(T)p.r(T)}$$$RNA1{StrandType:ss}|RNA2{StrandType:as}$	89
RNA1{r(A)p.r(G)p.r(A)p.r(A)p.r(G)p.[fl2r](U)p.r(A)p.r(C)p.r(C)p.r(A)p.r(G)p.r(G)p.r(A)p.r(G)p.r(G)p.r(C)p.r(G)p.r(U)p.r(U)p.r(T)p.r(T)}|RNA2{r(A)p.r(A)p.r(C)p.r(G)p.r(C)p.r(C)p.r(U)p.r(C)p.r(C)p.[fl2r](U)p.r(G)p.r(G)p.r(U)p.r(A)p.r(C)p.r(U)p.r(U)p.r(C)p.r(U)p.r(T)p.r(T)}$$$RNA1{StrandType:ss}|RNA2{StrandType:as}$	60
RNA1{r(U)p.r(U)p.r(U)p.r(C)p.r(C)p.r(C)p.r(C)p.r(C)p.[fl2r](A)p.[fl2r](G)p.[fl2r](G)p.r(U)p.[fl2r](A)p.[fl2r](A)p.[fl2r](C)p.[fl2r](G)p.r(A)p.r(U)p.r(U)p.r(T)p.r(T)}|RNA2{r(A)p.r(A)p.r(U)p.r(C)p.r(G)p.r(U)p.r(U)p.r(A)p.r(C)p.r(C)p.r(U)p.r(G)p.r(G)p.r(G)p.r(G)p.r(G)p.r(A)p.r(A)p.r(A)p.r(T)p.r(T)}$$$RNA1{StrandType:ss}|RNA2{StrandType:as}$	78
RNA1{r(A)p.r(G)p.r(C)p.m(C)p.r(A)p.r(C)p.r(A)p.r(U)p.r(U)p.r(U)p.r(C)p.r(U)p.m(A)p.r(G)p.r(G)p.r(A)p.r(G)p.r(A)p.r(U)p.r(T)p.r(T)}|RNA2{r(A)p.r(U)p.r(C)p.r(U)p.r(C)p.r(C)p.r(U)p.r(A)p.r(G)p.r(A)p.r(A)p.r(A)p.m(U)p.r(G)p.r(U)p.r(G)p.r(G)p.r(C)p.r(U)p.r(T)p.r(T)}$$$RNA1{StrandType:ss}|RNA2{StrandType:as}$	29
RNA1{r(A)p.r(A)p.m(C)p.r(A)p.r(G)p.r(C)p.r(C)p.r(U)p.m(U)p.r(A)p.r(C)p.r(C)p.r(C)p.r(C)p.r(G)p.r(A)p.r(U)p.r(U)p.r(C)p.r(T)p.r(T)}|RNA2{r(G)p.r(A)p.r(A)p.r(U)p.r(C)p.r(G)p.r(G)p.r(G)p.r(G)p.m(U)p.r(A)p.r(A)p.r(G)p.r(G)p.r(C)p.m(U)p.r(G)p.r(U)p.r(U)p.r(T)p.r(T)}$$$RNA1{StrandType:ss}|RNA2{StrandType:as}$	68
RNA1{r(A)p.r(G)p.r(A)p.r(A)p.r(G)p.r(G)p.r(A)p.r(C)p.m(U)p.r(A)p.r(C)p.m(U)p.r(A)p.r(A)p.r(C)p.r(C)p.r(U)p.r(C)p.r(C)p.r(T)p.r(T)}|RNA2{r(G)p.r(G)p.r(A)p.r(G)p.r(G)p.r(U)p.r(U)p.r(A)p.r(G)p.m(U)p.r(A)p.r(G)p.r(U)p.r(C)p.r(C)p.r(U)p.r(U)p.r(C)p.r(U)p.r(T)p.r(T)}$$$RNA1{StrandType:ss}|RNA2{StrandType:as}$	81
RNA1{r(G)p.r(A)p.r(C)p.r(G)p.[hna](U)p.r(A)p.r(A)p.[hna](A)p.r(C)p.r(G)p.[hna](G)p.r(C)p.r(C)p.[hna](A)p.r(C)p.r(A)p.r(A)p.r(G)p.r(U)p.r(U)p.d(T)}|RNA2{r(A)p.r(C)p.r(U)p.r(U)p.r(G)p.r(U)p.r(G)p.r(G)p.r(C)p.r(C)p.r(G)p.r(U)p.r(U)p.r(U)p.r(A)p.r(C)p.r(G)p.r(U)p.r(C)p.r(G)p.r(C)}$$$RNA1{StrandType:ss}|RNA2{StrandType:as}$	81.2
RNA1{r(C)p.r(G)p.r(U)p.r(A)p.r(C)p.r(G)p.r(C)p.r(G)p.r(G)p.r(A)p.r(A)p.r(U)p.r(A)p.[s4r](C)p.[s4r](U)p.[s4r](U)p.[s4r](C)p.[s4r](G)p.[s4r](A)p.r(T)p.r(T)}|RNA2{[s4r](U)p.[s4r](C)p.[s4r](G)p.[s4r](A)p.[s4r](A)p.[s4r](G)p.r(U)p.r(A)p.r(U)p.r(U)p.r(C)p.r(C)p.r(G)p.r(C)p.r(G)p.r(U)p.r(A)p.r(C)p.r(G)p.r(T)p.r(T)}$$$RNA1{StrandType:ss}|RNA2{StrandType:as}$	10.9
RNA1{r(G)p.r(G)p.r(C)p.r(C)p.r(U)p.r(U)p.r(U)p.r(C)p.r(A)p.r(C)p.r(U)p.r(A)p.r(C)p.r(U)p.r(C)p.r(C)p.r(U)p.r(A)p.r(C)p.d(T)p.d(T)}|RNA2{r(G)p.r(U)p.r(A)p.r(G)p.r(G)p.r(A)p.r(G)p.r(U)p.r(A)p.r(G)p.r(U)p.r(G)p.r(A)p.r(A)p.r(A)p.r(G)p.r(G)p.r(C)p.r(C)p.d(T)p.d(T)}$$$RNA1{StrandType:ss}|RNA2{StrandType:as}$	36
RNA1{r(G)p.r(C)p.[fl2r](U)p.r(G)p.[fl2r](U)p.r(A)p.r(A)p.r(C)p.r(C)p.r(U)p.r(C)p.r(G)p.r(G)p.r(A)p.r(G)p.r(A)p.r(G)p.r(U)p.r(U)p.r(T)p.r(T)}|RNA2{r(A)p.r(A)p.r(C)p.r(U)p.r(C)p.r(U)p.r(C)p.r(C)p.r(G)p.r(A)p.r(G)p.r(G)p.r(U)p.[fl2r](U)p.r(A)p.[fl2r](C)p.r(A)p.r(G)p.r(C)p.r(T)p.r(T)}$$$RNA1{StrandType:ss}|RNA2{StrandType:as}$	62
RNA1{m(A)p.m(A)p.r(C)p.r(C)p.r(C)p.m(A)p.r(C)p.r(C)p.m(A)p.r(C)p.m(A)p.r(G)p.r(C)p.m(U)p.m(A)p.r(G)p.m(A)p.m(A)p.r(C)p.m(U)p.m(U)}|RNA2{m(A)p.m(A)p.r(G)p.m(U)p.m(U)p.r(C)p.m(U)p.m(A)p.r(G)p.r(C)p.m(U)p.r(G)p.m(U)p.r(G)p.r(G)p.m(U)p.r(G)p.r(G)p.r(G)p.m(U)p.m(U)}$$$RNA1{StrandType:ss}|RNA2{StrandType:as}$	7
RNA1{r(A)p.r(A)p.r(C)p.r(C)p.r(C)p.r(A)p.r(C)p.r(C)p.r(A)p.r(C)p.r(A)p.r(G)p.r(C)p.m(U)p.m(A)p.r(G)p.r(A)p.r(A)p.r(C)p.m(U)p.m(U)}|RNA2{r(A)p.r(A)p.r(G)p.r(U)p.r(U)p.r(C)p.m(U)p.m(A)p.r(G)p.r(C)p.r(U)p.r(G)p.r(U)p.r(G)p.r(G)p.r(U)p.r(G)p.r(G)p.r(G)p.r(U)p.r(U)}$$$RNA1{StrandType:ss}|RNA2{StrandType:as}$	51
RNA1{r(G)p.r(C)p.r(A)p.r(G)p.r(C)p.r(A)p.r(C)p.r(G)p.r(A)p.r(C)p.r(U)p.r(U)p.r(C)p.r(U)p.r(U)p.r(C)p.r(A)p.r(A)p.r(G)p.r(T)p.r(T)}|RNA2{m(C)p.m(U)p.m(U)p.m(G)p.m(A)p.m(A)p.m(G)p.m(A)p.m(A)p.m(G)p.m(U)p.m(C)p.m(G)p.m(U)p.m(G)p.m(C)p.m(U)p.m(G)p.m(C)p.r(T)p.r(T)}$$$RNA1{StrandType:ss}|RNA2{StrandType:as}$	16
RNA1{[s4r](A)p.[s4r](A)p.[s4r](A)p.[s4r](C)p.r(A)p.r(U)p.r(G)p.r(C)p.r(A)p.r(G)p.r(A)p.r(A)p.r(A)p.r(A)p.r(U)p.[s4r](G)p.[s4r](C)p.[s4r](U)p.[s4r](G)p.r(T)p.r(T)}|RNA2{r(C)p.r(A)p.r(G)p.r(C)p.r(A)p.r(U)p.r(U)p.r(U)p.r(U)p.r(C)p.r(U)p.r(G)p.r(C)p.r(A)p.r(U)p.r(G)p.r(U)p.r(U)p.r(U)p.r(T)p.r(T)}$$$RNA1{StrandType:ss}|RNA2{StrandType:as}$	79.1
RNA1{r(A)p.r(G)p.r(A)p.r(G)p.r(G)p.r(A)p.r(C)p.r(C)p.r(U)p.m(A)p.r(G)p.r(A)p.r(A)p.r(G)p.r(G)p.r(C)p.r(G)p.r(G)p.r(C)p.r(T)p.r(T)}|RNA2{r(G)p.r(C)p.r(C)p.r(G)p.r(C)p.r(C)p.r(U)p.r(U)p.r(C)p.r(U)p.r(A)p.r(G)p.r(G)p.r(U)p.r(C)p.r(C)p.r(U)p.r(C)p.r(U)p.r(T)p.r(T)}$$$RNA1{StrandType:ss}|RNA2{StrandType:as}$	92
